Several values for one entry are separate records, joined by “and”; a condition that tells them apart may be missing. Equal entries are not always repeated. Where two headings read alike, the source gives them in different places.
Columns and labels:
Aβ1-40 [1] = test: Thioflavine T fluorometric assay of amyloid formation by Aβ1-40; assay type: biochemical; details: for % of amyloid Aβ1-40: amyloid remaining, 30 μg Aβ with 10-fold molar excess of peptide, 2 days, room temperature, 0.1M tris pH 7.6, Aβ alone = 100; for amyloid formed, as % of the amyloid detectable in the absence of inhibitor: 24 h, Aβ 1 mg/ml
Aβ1-40, sequence (P05067 18-40): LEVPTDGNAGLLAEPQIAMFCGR

Aβ1-42 = Aβ1-42 (Homo sapiens, UniProt P05067); test: Thioflavine T fluorometric assay of amyloid formation by Aβ1-42; assay type: biochemical; details: for % of amyloid Aβ1-42: amyloid remaining, 30 μg Aβ with 10-fold molar excess of peptide, 2 days, room temperature, 0.1M tris pH 7.6, Aβ alone = 100
Aβ1-42, sequence (P05067 18-42): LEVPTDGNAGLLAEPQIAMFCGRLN

[2] = biological target: Aβ with heparan-sulfate proteoglycan (Homo sapiens, UniProt P05067); test: Heparan-sulfate proteoglycan-induced Aβ fibrillogenesis; assay type: biochemical; details: preliminary experiments
Aβ with heparan-sulfate proteoglycan, sequence (P05067 672-711 limits assumed): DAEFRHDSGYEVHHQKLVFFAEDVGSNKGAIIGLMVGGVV

Aβ1-42 fibrils = Aβ1-42 fibrils (Homo sapiens, UniProt P05067); test: Dissolution of preformed Aβ1-42 fibrils, fluorometric quantitation; assay type: biochemical; details: 40-fold molar excess of iAβ, 24 h incubation
[3] = biological target: T1, Aβ1-40 with human plasma apolipoprotein E (Homo sapiens, UniProt P05067); test: Promotion of Aβ fibrillogenesis induced by apolipoprotein E, thioflavine T assay; assay type: biochemical; details: 30 μg Aβ1-40, 2.4 μg apoE, 1:10 (Aβ:iAβ), 24 h, room temperature
T1 construct: 30 μg of Aβ1-40 were incubated with or without 2.4 μg of human plasma apolipoprotein E; made in house; host or cells: Aβ1-40: chemical solid-phase synthesis
Experimental: Samples of Aβ alone or Aβ/apoE were incubated also with 1:10 (Aβ:iAβ) of the inhibitor. All the incubations were performed for 24 h at room temperature. Amyloid formation was evaluated by the thioflavine T fluorometric assay. The average of two different experiments is shown.

Aβ1-40 [4] = test: Negative-staining electron microscopy of Aβ1-40 fibril formation and dissolution; assay type: biochemical; details: for effect on Aβ1-40 fibril formation by electron microscopy: Aβ1-40 2 mg/ml, 40-fold excess from the start, 6 days, 37° C.
Aβ1-40 [5] = test: Aβ-iAβ binding by quenching of intrinsic Tyr10 fluorescence of Aβ
[6] = tested on: amyloid-A (AA) deposition; test: Experimental murine model of amyloid-A amyloidosis (AEF and silver nitrate), amyloid in spleen; assay type: in vivo, BALB/c mice
Aβ1-40 fibrils = Aβ1-40 fibrils (Homo sapiens, UniProt P05067); test: Dissolution of preformed Aβ1-40 fibrils, fluorometric quantitation; assay type: biochemical
Aβ1-40 fibrils, sequence (P05067 672-711): as the sequence (P05067 672-711 limits assumed) above

[7] = Aggregation of the peptide incubated alone; assay type: physicochemical; details: for amyloid-like material formed by the peptide alone, electron microscopy: 6 days, same concentration as with Aβ
Experimental: Based on these criteria, an 11 amino acid peptide, called inhibitor of Aβ fibrillogenesis peptide (iAβ) was designed, which has a low probability of adopting a β-sheet conformation due to the presence of proline residues (FIG. 9). The circular dichroism spectrum of iAβ in aqueous solution was typical of unordered structures (FIG. 10). Samples of iAβ at different concentrations as well as samples incubated for several days have similar spectra (FIG. 10).
The inhibition of fibril formation and the dissolution of preformed fibrils by iAβ was also analyzed by negative-staining electron microscopy (FIGS. 15a -f). Aβ1-40 (2 mg/ml) preincubated for 6 days at 37° C. formed typical 8-10 nm unbranched fibrils (Castano et al., biochem. Biophys. Res. Commun. 141:782-789, 1986) (FIG. 15a).

[8] = background art; cited from earlier work
PrP106-126 = PrP106-126 (Homo sapiens, UniProt P04156); details: same concentration as iPrP-12aa
Aβ [9] = biological target: T2, Aβ (Homo sapiens, UniProt P05067); test: Aβ amyloid fibril formation in vitro (Aβ variant not named); assay type: biochemical; details: 50-fold molar excess over soluble amyloid monomers
T2 sequence (P05067 672-711 limits assumed): as above

[10] = tested on: gelsolin amyloid (SEQ ID NO: 12); test: Fibril formation by the amyloidogenic peptide of gelsolin amyloid; assay type: biochemical; details: 1 mg/ml, 24 hours, molar ratio 1:5 or 1:20
Experimental: (§1) FIG. 8 is a bar graph showing the effect of anti-amyloid peptide 1 on the amyloid formation by Aβ and of peptides derived from the amyloidogenic sequence of gelsolin amyloid and amyloid A. Either β or the fifteen amino acid peptides containing the amyloidogenic sequence of gelsolin amyloid (SEQ ID NO: 12) and amyloid A (SEQ ID NO: 13) were incubated in a concentration of 1 mg/ml for 24 hours without and with anti-amyloid peptide 1 in a molar ratio of 1:5 or 1:20.

Aβ [11] = biological target: T2, Aβ; test: Redissolution of preformed Aβ fibrils by anti-amyloid peptide 1; assay type: biochemical; details: molar ratio 1:50 (Aβ:anti-amyloid peptide 1), 15 minutes to 24 hours
[12] = tested on: amyloid A (SEQ ID NO: 13); test: Fibril formation by the amyloidogenic peptide of amyloid A; assay type: biochemical; details: 1 mg/ml, 24 hours, molar ratio 1:5 or 1:20
Experimental: as §1

[13] = Kisilevsky et al., 1995; cited from earlier work

Which “% of amyloid Aβ1-40” value (Aβ1-40 [1]) does the source give for “iAβ4: five residue derivative of iAβ; proline substituted for valine of Aβ 17-21, aspartic acid at the end (LPFFD)” here?
The value was 28.7 ± 1.7%.

What about the “% of amyloid Aβ1-42” value (Aβ1-42) of the same molecule?
The value was 45.4 ± 0.6%.

For “CP2: control peptide (GYLTVAAVFRG) [reference compound]”, which “% of amyloid Aβ1-40” value (Aβ1-40 [1]) is on record?
Its value is 111.3 ± 4.1%.

What about the “% of amyloid Aβ1-42” value (Aβ1-42) of the same molecule?
Its value is 125.3 ± 3.9%.

What does the source list for “iAβ: 11 amino acid peptide partially homologous to Aβ residues 17-21, with proline residues and charged ends (RDLPFFPVPID)”?
effect on heparan-sulfate proteoglycan-induced Aβ fibrillogenesis [2]: blocked; Aβ1-42 fibril reduction (Aβ1-42 fibrils): 51%; effect on apo E-induced promotion of Aβ fibrillogenesis [3]: blocked the promotion of Aβ fibrillogenesis; effect on Aβ1-40 fibril formation by electron microscopy (Aβ1-40 [4]): only amorphous aggregates were obtained; dissolution of preformed Aβ1-40 fibrils by electron microscopy (Aβ1-40 [4]; fibrils preformed 6 days at 37° C., then 2 days with 1:40 molar ratio Aβ:iAβ): almost completely dissolved; maximum quenching of Aβ fluorescence, % of total fluorescence (Aβ1-40 [5]; at approximately 4 μM of iAβ, 25° C., 5 mM Tris pH 7.4): 12.6%; Kd (Aβ1-40 [5]; non-linear regression of binding data to a rectangular hyperbola, read-out: relative dissociation constant): 75.9 ± 6.5 nM; amyloid formed, as % of the amyloid detectable in the absence of inhibitor (Aβ1-40 [1]; 5-fold molar excess of iAβ): 33.9%; amyloid formed, as % of the amyloid detectable in the absence of inhibitor (Aβ1-40 [1]; 20-fold molar excess of iAβ): 13.7%; % of amyloid Aβ1-40 (Aβ1-40 [1]): 25.5 ± 0.7%; decrease of the area occupied by amyloid in the spleen versus animals treated without the inhibitor ([6]; 5 mg iAβ injected together with AEF after 24 h preincubation, 5 days): approximately 86.4%; amyloid in spleen by image analysis, AEF/SN + iAβ, single animal ([6]; AEF 100 μg preincubated 24 h with 5 mg peptide, sacrificed at 5 days, AEF/SN alone average 31.2): 4.35 and 3.68 and 5.32 and 3.67; amyloid in spleen by image analysis, AEF/SN + iAβ, Average ± SE ([6]; four animals, AEF 100 μg preincubated 24 h with 5 mg peptide, 5 days, AEF/SN alone 31.2 ± 0.75): 4.26 ± 0.39; incubation time to maximum level of fibril dissolution (Aβ1-40 fibrils; 40-fold molar excess of iAβ (FIG. 14B), Aβ variant not stated): 2 days; dissolution of preformed Aβ1-40 fibrils (Aβ1-40 fibrils; 40-fold molar excess of iAβ, 24 h incubation): almost complete dissolution; inhibition of amyloid formation (Aβ1-42; 5-fold molar excess of iAβ over Aβ1-42, 24 h): 28.7%; inhibition of amyloid formation (Aβ1-42; 20-fold molar excess of iAβ over Aβ1-42, 24 h): 72.3%; inhibition of amyloid formation (Aβ1-42; 40-fold molar excess of iAβ over Aβ1-42, 24 h): 80.6%; % of amyloid Aβ1-42 (Aβ1-42): 57.9 ± 1.3%; amyloid-like material formed by the peptide alone, electron microscopy [7]: formed no amyloid-like material; aggregation of the peptide ([7]; even at high concentrations (4 mg/ml) or after more than 30 days of incubation): did not aggregate

What does the source list for “iAβ2: seven amino acid residue shorter derivative of iAβ (LPFFPVD)”?
% of amyloid Aβ1-40 (Aβ1-40 [1]): 36.7 ± 4.8%; % of amyloid Aβ1-42 (Aβ1-42): 61.3 ± 3.0%

With `COc1cccc2c1C(=O)c1c(O)c3c(c(O)c1C2=O)C[C@@](O)(C(=O)CO)C[C@@H]3O[C@H]1C[C@H](N)[C@H](I)[C@H](C)O1` [IDOX, Anthracycline 4′-iodo-4′-deoxy-doxorubicin] as the molecule, how does the “toxicity” value [8] read?
Its value is “extremely toxic”.

Which “% of amyloid Aβ1-40” value (Aβ1-40 [1]) does the source give for Pro-Phe-Phe [iAβ6] here?
The value was 108.1 ± 7.9%.

What about the “% of amyloid Aβ1-42” value (Aβ1-42) of the same molecule?
Its value is 88.9 ± 2.6%.

What does the source list for “iAβ3: shorter derivative of iAβ; valine inserted into the sequence of SEQ ID NO:18 (LPFFVD)”?
% of amyloid Aβ1-40 (Aβ1-40 [1]): 90.1 ± 1.3%; % of amyloid Aβ1-42 (Aβ1-42): 87.1 ± 6.1%

What does the source list for “CP1: unrelated control peptide of 12 amino acids (VHVSEEGTEPA) [reference compound]”?
effect on amyloid formation by PrP106-126 (PrP106-126): No significant effect; % of amyloid Aβ1-40 (Aβ1-40 [1]): 98.4 ± 1.2%; % of amyloid Aβ1-42 (Aβ1-42): 101.3 ± 1.9%

Which results are given for “anti-amyloid peptide 1: 15-amino acid anti-amyloid peptide (SRGDLPFFPVPIGDS)”?
inhibition of amyloid fibril formation (Aβ [9]): 90%; inhibition of fibril formation of the gelsolin related amyloid peptide [10]: inhibits the fibril formation; dissolution of preformed Aβ fibrils (Aβ [11]): Dissolution of preformed fibrils also occurred; inhibition of fibril formation of the amyloid-A peptide [12]: inhibits the fibril formation

Which results are given for “CP3: control peptide (PADVPLAPRAVD) [reference compound]”?
% of amyloid Aβ1-40 (Aβ1-40 [1]): 87.7 ± 2.0%; % of amyloid Aβ1-42 (Aβ1-42): 94.4 ± 1.4%

What does the source list for “Aβ18-21: short Aβ fragment (VFFA) [reference compound]”?
% of amyloid Aβ1-40 (Aβ1-40 [1]): 105 ± 3.2%; % of amyloid Aβ1-42 (Aβ1-42): 98.5 ± 5.3%

Which “effect on Aβ1-40 fibril formation by electron microscopy” value (Aβ1-40 [4]) does the source give for “control peptide: 12 residue non-related control peptide (VHVSEEGTEPEA) [reference compound]” here?
The value was “did not produce any effect”.

And the “effect on amyloid formation by Aβ1-40” value (Aβ1-40 [1]; FIGS. 12 and 13)?
The value was “did not alter amyloid formation”.

And the “effect on amyloid formation by Aβ1-42” value (Aβ1-42; FIG. 12)?
Its value is “did not alter amyloid formation”.

What about the “amyloid-like material formed by the peptide alone, electron microscopy” value [7] of the same molecule?
Its value is “formed no amyloid-like material”.

With “iAβ1: shorter derivative of iAβ (RDLPFFPVD)” as the molecule, how does the “% of amyloid Aβ1-40” value (Aβ1-40 [1]) read?
The value was 55.2 ± 2.1%.

And the “% of amyloid Aβ1-42” value (Aβ1-42)?
Its value is 85.7 ± 11.6%.

Which “% of amyloid Aβ1-40” value (Aβ1-40 [1]) does the source give for “Leu Val Phe Phe Ala [Aβ17-21, reference compound]” here?
The value was 89.2 ± 2.7%.

What about the “% of amyloid Aβ1-42” value (Aβ1-42) of the same molecule?
The value was 92.3 ± 3.4%.

For iAβ5: shorter derivative of iAβ (LPFF), which “% of amyloid Aβ1-40” value (Aβ1-40 [1]) is on record?
The value was 92.1 ± 1.3%.

What about the “% of amyloid Aβ1-42” value (Aβ1-42) of the same molecule?
Its value is 82.4 ± 5.0%.

Which “toxicity” value [13] does the source give for poly- (vinylsulfonate) here?
The value was “acutely toxic”.

From patent US6462171B1, “Peptides and pharmaceutical compositions thereof for treatment of disorders or diseases associated with abnormal protein folding into amyloid or amyloid-like deposits” (New York University, priority 1995, dated 2002)
